The values below come from US20240058371A1, “MOLECULE FOR INDUCING SPONTANEOUS CALCIFICATION OF TUMOR CELLS AND USE THEREOF” (ZHEJIANG UNIVERSITY, priority 2020, published 2024).

The conditions of data set [1]: systemic FA administration; cited from earlier work.
Data set [2] relates to A549-Luci cells. Kind of data set: Mouse model of metastatic lung tumors, small animal in vivo imaging. Further details: species or system nude mice. The following applies: 200 mg/kg tail vein, compared with the control group. Here is the method: To construct a mouse model of metastatic lung tumors, 3×10^6 A549-Luci cells
were injected into the tail vein of nude mice, followed by injection of targeting peptide (CiP; 200 mg/kg) through the tail vein. Control mice were injected with PBS, 4 mg/kg adriamycin (Dox), and a control peptide ([…], targeting peptide, TP) at the same concentration as the CiP peptide; this experiment investigated whether CiP targeting peptide-induced calcification of A549 cells could inhibit lung cancer growth and metastasis. Tumorigenesis was monitored using a small animal in vivo imaging system.
The above experiments were repeated using the E6[…], E10[…], E16[…], and E30[…] peptides.

The subject of data set [3] is human non-small cell lung cancer cells (lines A549, H460, and H1299). Kind of data set: Flow cytometry of cell surface-bound FITC-modified targeting peptide, lung cancer cells. Type of data set: binding. The following applies: 100 μg/mL FITC-modified peptide, 30 min, Ca2+ up to 2.75 mM, phosphate up to 1.61 mM. Here is the method: (§1) The free amino groups of aspartic acid residues in the targeting peptide were reacted with fluorescein isothiocyanate (FITC) in phosphate-buffered saline (PBS) solution for 12 hours, then dialyzed in dialysis bags for 5 days and lyophilized to obtain FITC-modified targeting peptide molecules.

Data set [4] has as its system Beas-2b human lung epithelial cells, and human umbilical vein endothelial cells (HUVECs). In words: Flow cytometry of cell surface-bound FITC-modified targeting peptide, normal cells. It is filed as binding. As to conditions: 100 μg/mL FITC-modified peptide, 30 min. Here is the method: as §1
For orientation: In flow cytometry, cells or beads pass a laser one at a time.

The subject of data set [5] is A549 human non-small cell lung cancer cells. Kind of data set: Electron microscopy / EDX elemental scan of cell surface calcification, lung cancer cells. The following applies: 1 mg/mL, 48 hours, Ca2+ up to 2.75 mM, phosphate up to 1.61 mM. Type of data set: cell-based. The text has this: (§2) Subsequently, they were subjected to electron microscopy to detect calcification on the cell surface.

Data set [6] concerns lung epithelial cells. Kind of data set: Electron microscopy / EDX elemental scan of cell surface calcification, lung epithelial cells. It is filed as cell-based, human.
Source text: as §2

Data set [7] relates to human non-small cell lung cancer cells (lines A549, H460, and H1299). Kind of data set: CCK8 assay, lung cancer cells. It is filed as cell-based. Details: dose or concentration left out as unconfirmed. The following applies: 48 hours. Here is the method: CCK8 assays were performed to determine the killing effect of targeting peptide-induced calcification of lung cancer cells.
(Tetrazolium dyes change colour on reduction, which living cells bring about.)

Data set [8] deals with Beas-2b human lung epithelial cells. Kind of data set: CCK8 assay, normal lung epithelial cells. Type of data set: cell-based. Further details: dose or concentration left out as unconfirmed. As to conditions: 48 hours.
In data set [9] the test system is A549-Luci cells. Kind of data set: Ultrasound and CT imaging of calcified lung cancer, mouse model of pulmonary metastatic tumors. Type of data set: in vivo, nude mice. The following applies: 200 mg/kg intravenous, 4 weeks after model establishment. As to the method: (§3) Fifty micrograms of SodA peptide ([…]) and 0.25 mL of incomplete Freund's adjuvant were mixed and subcutaneously injected into the backs of C57 mice. Two weeks later, 50 μg of SodA peptide and 6000 agarose 4B beads dissolved in 0.2 mL PBS were covalently coupled and injected into the tail vein of the same C57 mice to construct a mouse model of pulmonary nodules. Additionally, 3×10^6 A549-Luci cells were injected into the tail vein of nude mice to construct a mouse model of pulmonary metastatic tumors. Some mice underwent intravenous injection of the targeting peptide (200 mg/kg) to induce calcification; simultaneous ultrasound and CT scans of normal lung cancer, calcified lung cancer, and pulmonary nodules were performed at 4 weeks after model establishment.

The test system of data set [10] is pulmonary nodules. Kind of data set: Ultrasound and CT imaging, mouse model of pulmonary nodules. Type of data set: in vivo, C57 mice. The following applies: 200 mg/kg intravenous, 4 weeks after model establishment. Here is the method: as §3

“Also recorded” adds a separate entry of the source.

For `Nc1nc2ncc(CNc3ccc(C(=O)N[C@@H](CCC(=O)O)C(=O)O)cc3)nc2c(=O)[nH]1` [FA, folic acid], in data set [1], the body weight entry is given as “dramatically reduces body weight”, the survival time entry is “severely decreases survival time” and the tumor growth result is given as “promotes tumor growth”.

Take E6TDSILRSYDWTY: the “growth (and metastasis) of A549 lung cancer cells in vivo” value (“growth (and metastasis)” below) in data set [2] is “significantly inhibited the growth of A549 cells”.

Consider E10TDSILRSYDWTY, for which the “growth (and metastasis)” value in data set [2] is on record as “significantly inhibited the growth of A549 cells”.

E16TDSILRSYDWTY: the “growth (and metastasis)” value in data set [2] was “significantly inhibited the growth of A549 cells”.

Consider E24 TDSILRSYDWTY [targeting peptide], for which the “binding of targeting peptide to cell surface” value in data set [3] is given as “selectively bound to the surface of lung cancer cells”; in [4], “did not bind to normal epithelial cells; also recorded: weakly bound to normal cells”. Besides, the “calcification on the cell surface (EDX calcium and phosphorus peaks)” value is reported as “significantly increased calcification peaks” in data set [5] and “significantly increased” in data set [5] (listed as CiP). The “calcification on the cell surface (EDX calcium and phosphorus)” value in data set [6] was “without significantly affecting normal lung epithelial cells; also recorded: less deposition of calcium and phosphorus elements”. The “proliferative activity / killing effect” value in data set [7] is recorded as “selectively inhibited the proliferative activities of various lung cancer cells”. The “toxic effects on normal lung epithelial cells” value in [8] is on record as “without significant toxic effects on normal lung epithelial cells”. Also, the “identification of calcified lung cancer on ultrasound” value in [9] is recorded as “evident as high-density calcified foci on ultrasound; also recorded: could be clearly identified on ultrasound”. Besides, the “visualisation of calcified lung cancer on CT” value in data set [9] is “revealed a clear boundary on CT; also recorded: could be visualized on CT”. The “identification of pulmonary nodules by imaging” value in data set [10] is recorded as “could not be clearly identified by imaging”. The “growth (and metastasis)” value in data set [2] was “effectively inhibited the growth and metastasis of lung cancer”; in data set [2] (listed as CiP targeting peptide), “significantly inhibited the growth of A549 cells”.

E30TDSILRSYDWTY: the “growth (and metastasis)” value in data set [2] is “significantly inhibited the growth of A549 cells”.
